{
  "source": "ChEMBL document CHEMBL4152235",
  "about": "“Synthesis, anionophoric activity and apoptosis-inducing bioactivity of benzimidazolyl-based transmembrane anion transporters” (Eur J Med Chem, 2018)",
  "key": {"[1]": {"assay": "Ionophoric activity across lucigenin probe encapsulated pH 7 egg yolk L-alpha-phosphatidylcholine-based large unilamellar vesicles loaded with Na2SO4 assessed as chloride ion efflux at 7.81 x 10^-3mol% after 20 mins in presence of NaCl loaded external vesicles by fluorescence method"}, "[2]": {"assay": "Ionophoric activity across pyranine dye encapsulated pH 7 egg yolk L-alpha-phosphatidylcholine-based liposomal membranes assessed as chloride ion transport by measuring induction of pH discharge at 1.95 x 10^-3 mol% after 20 mins in presence of NaCl loaded external vesicles by fluorescence method"}, "[3]": {"assay": "Ionophoric activity across pyranine dye encapsulated pH 7 egg yolk L-alpha-phosphatidylcholine-based liposomal membranes assessed as chloride ion transport by measuring initial rate constant for induction of pH discharge at 3.91 x 10^-3 mol% after 20 mins in presence of NaCl loaded external vesicles by fluorescence method (reference value: 5.03 +/- 1.02 10^-3/min)"}, "HeLa [4]": {"tested_on": "HeLa", "assay": "Induction of apoptosis in human HeLa cells assessed as formation of apoptotic bodies at 2.5 uM after 24 hrs by Hoechst 33342 staining based fluorescence microscopic analysis", "assay_type": "functional, cell-based"}, "[5]": {"assay": "Ionophoric activity across pyranine dye encapsulated pH 7 egg yolk L-alpha-phosphatidylcholine-based liposomal membranes assessed as chloride ion transport by measuring initial rate constant for induction of pH discharge at 7.81 x 10^-3 mol% after 20 mins in presence of NaCl loaded external vesicles by fluorescence method (reference value: 5.03 +/- 1.02 10^-3/min)"}, "HeLa [6]": {"tested_on": "HeLa", "assay": "Induction of apoptosis in human HeLa cells assessed as chromatin condensation at 2.5 uM after 24 hrs by Hoechst 33342 staining based fluorescence microscopic analysis", "assay_type": "functional, cell-based"}, "[7]": {"assay": "Ionophoric activity across pyranine dye encapsulated pH 7 egg yolk L-alpha-phosphatidylcholine-based liposomal membranes assessed as iodide ion transport by measuring induction of pH discharge at 1.95 x 10^-3 mol% after 20 mins in presence of NaI loaded external vesicles by fluorescence method"}, "[8]": {"assay": "Ionophoric activity across pyranine dye encapsulated pH 7 egg yolk L-alpha-phosphatidylcholine-based liposomal membranes assessed as chloride ion transport by measuring initial rate constant for induction of pH discharge at 4.88 x 10^-4 mol% after 20 mins in presence of NaCl loaded external vesicles by fluorescence method (reference value: 5.03 +/- 1.02 10^-3/min)"}, "HeLa [9]": {"tested_on": "HeLa", "assay": "Induction of apoptosis in human HeLa cells assessed as chromatin fragmentation at 2.5 uM after 24 hrs by Hoechst 33342 staining based fluorescence microscopic analysis", "assay_type": "functional, cell-based"}, "HeLa [10]": {"tested_on": "HeLa", "assay": "Induction of apoptosis in human HeLa cells assessed as formation of bean shaped nuclei at 2.5 uM after 24 hrs by Hoechst 33342 staining based fluorescence microscopic analysis", "assay_type": "functional, cell-based"}, "HeLa [11]": {"tested_on": "HeLa", "assay": "Cytotoxicity against human HeLa cells assessed as reduction in cell viability at 50 uM after 48 hrs by MTT assay relative to control", "assay_type": "functional"}, "[12]": {"assay": "Ionophoric activity across pyranine dye encapsulated pH 7 egg yolk L-alpha-phosphatidylcholine-based liposomal membranes assessed as chloride ion transport by measuring induction of pH discharge at 1.95 x 10^-3 mol% after 20 mins in presence of LiCl loaded external vesicles by fluorescence method"}, "[13]": {"assay": "Ionophoric activity across pyranine dye encapsulated pH 7 egg yolk L-alpha-phosphatidylcholine-based liposomal membranes assessed as chloride ion transport by measuring induction of pH discharge after 20 mins in presence of NaCl loaded external vesicles by fluorescence method relative to m-Bimbe"}, "[14]": {"assay": "Ionophoric activity across pyranine dye encapsulated pH 7 egg yolk L-alpha-phosphatidylcholine-based liposomal membranes assessed as chloride ion transport by measuring induction of pH discharge at 1.95 x 10^-3 mol% after 20 mins in presence of KCl loaded external vesicles by fluorescence method"}, "HeLa [15]": {"tested_on": "HeLa", "assay": "Ionophoric activity across human HeLa cells assessed as chloride ion efflux up to 10 uM after 2 hrs by MQAE dye based fluorescence assay", "assay_type": "cell-based"}, "MCF7 [16]": {"tested_on": "MCF7", "assay": "Cytotoxicity against human MCF7 cells assessed as reduction in cell viability at 50 uM after 48 hrs by MTT assay relative to control", "assay_type": "functional", "conditions": "MCF7, 48 h"}, "HeLa [17]": {"tested_on": "HeLa", "assay": "Cytotoxicity against human HeLa cells assessed as reduction in cell viability after 48 hrs by MTT assay", "assay_type": "functional, cell-based"}, "[18]": {"assay": "Ionophoric activity across pyranine dye encapsulated pH 7 POPC-cholesterol-based liposomal membranes assessed as chloride ion transport by measuring induction of pH discharge at 7.81 x 10^-3mol% after 20 mins in presence of NaCl loaded external vesicles by fluorescence method"}, "[19]": {"assay": "Ionophoric activity across pyranine dye encapsulated pH 7 egg yolk L-alpha-phosphatidylcholine-based liposomal membranes assessed as chloride ion transport by measuring induction of pH discharge after 20 mins in presence of NaCl loaded external vesicles by fluorescence method"}, "HeLa [20]": {"tested_on": "HeLa", "assay": "Ionophoric activity across human HeLa cells assessed as chloride ion efflux at 10 uM after 3 hrs by acridine orange staining based fluorescence microscopic analysis", "assay_type": "cell-based"}, "[21]": {"assay": "Ionophoric activity across pyranine dye encapsulated pH 7 egg yolk L-alpha-phosphatidylcholine-based liposomal membranes assessed as bromide ion transport by measuring induction of pH discharge at 1.95 x 10^-3 mol% after 20 mins in presence of NaBr loaded external vesicles by fluorescence method"}, "HeLa [22]": {"tested_on": "HeLa", "assay": "Cytotoxicity against human HeLa cells assessed as reduction in cell viability up to 10 uM after 12 hrs in absence of chloride by MTT assay", "assay_type": "functional, cell-based"}, "[23]": {"assay": "Binding affinity to chloride ion at 1.5 x 10^-5M using tetra(n-butyl)ammonium chloride measured after 5 mins by spectrophotometric titration method"}, "[24]": {"assay": "Ionophoric activity across pyranine dye encapsulated pH 7 egg yolk L-alpha-phosphatidylcholine-based liposomal membranes assessed as chloride ion transport by measuring initial rate constant for induction of pH discharge at 1.95 x 10^-3 mol% after 20 mins in presence of NaCl loaded external vesicles by fluorescence method (reference value: 5.03 +/- 1.02 10^-3/min)"}, "A549": {"tested_on": "A549", "assay": "Cytotoxicity against human A549 cells assessed as reduction in cell viability at 50 uM after 48 hrs by MTT assay relative to control", "assay_type": "functional", "conditions": "A549, 48 h"}, "[25]": {"assay": "Ionophoric activity across pyranine dye encapsulated pH 7 egg yolk L-alpha-phosphatidylcholine-based liposomal membranes assessed as chloride ion transport by measuring initial rate constant for induction of pH discharge at 9.77 x 10^-4 mol% after 20 mins in presence of NaCl loaded external vesicles by fluorescence method (reference value: 5.03 +/- 1.02 10^-3/min)"}, "L02": {"tested_on": "L02", "assay": "Cytotoxicity against human LO2 cells assessed as reduction in cell viability after 48 hrs by MTT assay", "assay_type": "cell-based", "conditions": "L02, 48 h"}, "[26]": {"assay": "Ionophoric activity across pyranine dye encapsulated pH 7 egg yolk L-alpha-phosphatidylcholine-based liposomal membranes assessed as chloride ion transport by measuring induction of pH discharge at 1.95 x 10^-3 mol% after 20 mins in presence of CsCl loaded external vesicles by fluorescence method"}, "HepG2": {"tested_on": "HepG2", "assay": "Cytotoxicity against human HepG2 cells assessed as reduction in cell viability after 48 hrs by MTT assay", "assay_type": "functional, cell-based", "conditions": "HepG2, 48 h"}, "MCF7 [27]": {"tested_on": "MCF7", "assay": "Cytotoxicity against human MCF7 cells assessed as reduction in cell viability up to 10 uM after 12 hrs in presence of chloride by MTT assay", "assay_type": "functional, cell-based"}},
  "note": "Calls of active or inactive are those of the source. The calls are words filed in the database; no cut-off is given here.",
  "data": [
    {"smiles": "O=[N+]([O-])c1cc(-c2nc3ccc(C(F)(F)F)cc3[nH]2)cc(-c2nc3ccc(C(F)(F)F)cc3[nH]2)c1", "values": [
      {"measurement": "Activity", "setting": "[1]", "result": "inactive"},
      {"measurement": "Activity", "setting": "[2]", "result": "Active"},
      {"measurement": "K", "setting": "[3]", "result": 1.33, "unit": "×10⁻¹ /min"},
      {"measurement": "Activity", "setting": "HeLa [4]", "result": "Active"},
      {"measurement": "K", "setting": "[5]", "result": 1.87, "unit": "×10⁻¹ /min"},
      {"measurement": "Activity", "setting": "HeLa [6]", "result": "Active"},
      {"measurement": "Activity", "setting": "[7]", "result": "inactive"},
      {"measurement": "K", "setting": "[8]", "result": 2.11, "unit": "×10⁻² /min"},
      {"measurement": "Activity", "setting": "HeLa [9]", "result": "Active"},
      {"measurement": "Activity", "setting": "HeLa [10]", "result": "Active"},
      {"measurement": "inhibition at 50 µM", "setting": "HeLa [11]", "result": 94.9, "unit": "%"},
      {"measurement": "Activity", "setting": "[12]", "result": "Active"},
      {"measurement": "fold change (FC)", "setting": "[13]", "result": 1720},
      {"measurement": "Activity", "setting": "[14]", "result": "Active"},
      {"measurement": "Activity", "setting": "HeLa [15]", "result": "Active"},
      {"measurement": "inhibition at 50 µM", "setting": "MCF7 [16]", "result": 99.2, "unit": "%"},
      {"measurement": "IC50", "setting": "HeLa [17]", "result": 1900, "unit": "nM"},
      {"measurement": "Activity", "setting": "[18]", "result": "inactive"},
      {"measurement": "EC50", "setting": "[19]", "result": 3.76, "unit": "×10⁻³ mol%"},
      {"measurement": "EC50", "setting": "[19]; read-out: EC50", "result": 50, "unit": "nM"},
      {"measurement": "Activity", "setting": "HeLa [20]", "result": "Active"},
      {"measurement": "Activity", "setting": "[21]", "result": "inactive"},
      {"measurement": "Activity", "setting": "HeLa [22]", "result": "Active"},
      {"measurement": "Ka", "setting": "[23]", "result": 7.53, "unit": "×10³ /M"},
      {"measurement": "K", "setting": "[24]", "result": 8.14, "unit": "×10⁻² /min"},
      {"measurement": "inhibition at 50 µM", "setting": "A549", "result": 100, "unit": "%"},
      {"measurement": "K", "setting": "[25]", "result": 4.08, "unit": "×10⁻² /min"},
      {"measurement": "IC50", "setting": "L02", "result": 3700, "unit": "nM"},
      {"measurement": "Activity", "setting": "[26]", "result": "Active"},
      {"measurement": "IC50", "setting": "HepG2", "result": 4100, "unit": "nM"},
      {"measurement": "Activity", "setting": "MCF7 [27]", "result": "Active"}
    ]}
  ]
}
